This is an account of results in patent US20160175241A1, “COMPOSITION FOR SKIN ANTI-AGEING TREATMENT” (POLICHEM SA, priority 2013, published 2016).

For assay [1], the system named is Reactive oxygen species (ROS) measured on keratinocytes after exposure to Ultraviolet light A (UVA). The assay can be described thus: ROS formation in keratinocytes after UVA exposure (DCA fluorescence). The class given is cell-based. The conditions noted are these: Homo sapiens, Keratinocyte, light or radiation study, 0.15 mg/ml (positive control). On the procedure:
To the test the different antioxidant activity of the composition according to the Example 1 versus the Comparative Compositions 2-5 of the Example 2, they were tested at different concentrations (0.500-0.016 mg/ml) on Reactive oxygen species (ROS) measured on keratinocytes after exposure to Ultraviolet light A (UVA), with and without the tested sample, evaluating the cell viability after UVA stress by Neutral red uptake (NRU) test: cell survival assay using cultured human keratinocytes in monolayer cultures with and without the tested sample.
Human primary keratinocytes come from paediatric foreskins, with ethic committee's permission, from pre-planned routine surgery. The epidermis was separated from dermis by incubation with […] and trypsinized to generate single cell suspension.
Keratinocytes were cultivated in Dulbecco's modified Eagle's and Ham's F12 media (3:1) enriched with 10% foetal calf serum (v/v) and specific enrichments.
These cells multiply in culture until a cell monolayer is reached. […] Once a confluence of 60-70% has been reached, fresh medium is added with scalar dilutions of the tested sample. Non-treated cells are used as negative controls. At this stage the cell cultures were treated with different dilutions of the test compound and of the controls to obtain final concentrations ranging from 0.5 to 0.016 mg/ml. For each dilution, three replicate tests were performed. The product was dissolved in the culture medium. […] The cell vitality is determined after UVA exposure and without UV exposure.
After having exposed the cells to the tested sample, the cell culture medium is removed and the cells are washed in PBS. […] DCA is reacting with free radicals in the medium, originating a fluorescent derivative, and the fluorimeter reading allows obtaining a quantitative data related to the ROS content in the cells.
After suitable incubation, the DCA solution has been discharged and the cells have then been exposed for different times to UVA irradiation and soon after read in the fluorimeter, as described (Toxicol. Letters 1997-93:47-54).

Assay [2] has as its system skin structure and firmness. The note with it: two concentrations, 0.1% and 1%; cited from earlier work.

In the case of `O=C1O[C@H]([C@@H](O)CO)C(O)=C1O` [Vitamin C], the inhibition at 150 µg/mL was found to be 19.6% in assay [1] (4′ UVA (1 J/cm2)), 13.4% in assay [1] (8′ UVA (2 J/cm2)) and 14.8% in assay [1] (12′ UVA (3 J/cm2)).
Turning to `COc1cc(O)c(CC=C(C)C)c(O)c1C(=O)/C=C/c1ccc(O)cc1` [xanthohumol], in assay [2], the “improving skin structure and firmness” value was “resulted efficacious”.
